Test results from patent US20070087985A1, “MRCK-related compositions and methods” (priority 2005, published 2007).

Experiments:
Type in all cases: cell-based
[1] = test system: starved wound edge NIH-3T3 cells; assay: MTOC reorientation in wounded starved monolayers (fixed, stained cells); conditions: for effect on MTOC reorientation induced by LPA: pre-treatment with 0.5 μM CD or 50 μM BB; for MTOC reorientation in starved cells without LPA: microinjected protein or expressed DNA, no other treatment
Procedure: (§1) NIH-3T3 cells were cultured in DMEM with 10% calf serum, serum starved for 2 days and wounded as previous described (9, 21).
(§2) Plasmid DNA was purified using Plasmid Midi Kit (Qiagen, Valencia, Calif.) and was microinjected into nuclei as described (38). Expression was detectable within 1-2 hr. Proteins were microinjected as described (9, 39). DIC mAb 74.1 (from K. Pfister, U. of Virginia), was microinjected at 10 mg/ml and Cdc42, Rac and Rho GTPases were microinjected at 1 mg/ml. For double microinjections, 100 μg/ml DNA (MRCK-WT or MRCK-CPC) was injected into the nucleus with 2 mg/ml fluorescein-ovalbumin. After 30 min, labelled cells were injected with DIC mAb, L61Cdc42 or human IgG as a control.
(§3) Phase contrast and fluorescence images of cells stained for pericentrin or γ-tubulin, β-catenin, DNA, expression tag, MTs. (Tyr tubulin) or injection marker were acquired as described (38, 39). MTOC reorientation was determined as previously described (39). For analysis of nucleus and MTOC position, images were pseudo-colored, aligned with the wound parallel to the X axis and then combined using Metamorph software. The cell perimeter was drawn over the cell-cell contacts (β-catenin, expression tags or injection markers) and the wound edge (Tyr-tubulin or injection markers) and the cell centroid was calculated using Metamorph software. Similarly, the nuclear perimeter was drawn and the centroid of the nucleus calculated. A vector representing the distances from the centroid of the nucleus and the MTOC (γ-tubulin or pericentrin staining and MT focus) to the cell centroid was drawn and resolved into X and Y coordinates (parallel and perpendicular to the leading edge, respectively). To allow comparison between cells, measurements were normalized to cell size. […] At least 30 cells from 3 independent experiments were analysed for each condition and error bars in plots are SEM.

[2] = test system: starved wound edge NIH-3T3 cells; assay: Determination of nucleus and MTOC position relative to the cell centroid; conditions: for effect on rearward nuclear movement induced by LPA / effect on the position of the MTOC: pre-treatment with 0.5 μM CD or 50 μM BB; for effect on rearward nuclear movement induced by LPA / effect on the position of the MTOC / effect on LPA-induced rearward nuclear movement: 2 μM LPA, 2 hr; for rearward nuclear movement in starved cells without LPA: microinjected protein or expressed DNA
Procedure: as §1, §2, §3

[3] = test system: wound edge NIH-3T3 cells; assay: Actin distribution (phalloidin staining)
Procedure: Actin retrograde flow is involved in nuclear movement. A. Region of 3T3-GFPTub cell used for kymograph in B. B. Kymograph showing retrograde movement of MTs and nucleus before and after 2 μM LPA addition. […] The nucleus is the broad dark band at the bottom of the kymograph and begins moving rearward in concert with MTs. C, D. Wound edge starved NIH-3T3 cells were microinjected with R-actin and time lapse images of actin speckles were acquired before (C) or after (D) addition of 2 μM LPA. Kymographs of a region of the lamella are shown (separate cells are shown in C and D). Actin speckles (arrowheads) remain stationary in the absence of LPA (C) but move away from the leading edge upon LPA addition (D). Note that the nucleus remains stationary in the absence of LPA (C) but moves rearward at the same rate as actin speckles after LPA addition (D). E. Starved wounded monolayers of NIH-3T3 cells were either left untreated or treated with 2 μM LPA with or without BB or CD as indicated. After 2 hr, coverslips were fixed, stained and the extent of MTOC reorientation determined. The level of random “reorientation” is ˜33%. F. The average positions of the MTOC and nucleus from the cells treated as in E were determined and plotted. G. Actin distribution (phallodin staining) in wound edge NIH-3T3 cells treated as indicated. Bar, G: 10 μm.
Cdc42 and MRCK activate nuclear movement to reorient the MTOC. A. Starved wound edge NIH-3T3 cells were injected with L61Cdc42, N17Cdc42 or Pak-CRIB domain proteins and then treated with 2 μM LPA for 2 hr. Cells were then fixed, stained and the positions of the nucleus and MTOC were determined. […] After expression (2 hr) cells were treated with 2 μM LPA for 2 hr, fixed, stained and the extent of MTOC reorientation determined. […] After expression (3 hr), cells were fixed, stained and the extent of MTOC reorientation was determined. D, E. Average nucleus and MTOC positions of cells from B and C were determined and plotted. […] Cells were fixed and stained and the percentage of expressing cells remaining at the wound edge determined. […]

[4] = test system: starved wound edge NIH-3T3 cells; assay: Migration of expressing wound edge cells after serum stimulation; conditions: DNA microinjection, serum for 12 h
Procedure: Cdc42 and MRCK activate nuclear movement to reorient the MTOC. A. Starved wound edge NIH-3T3 cells were injected with L61Cdc42, N17Cdc42 or Pak-CRIB domain proteins and then treated with 2 μM LPA for 2 hr. Cells were then fixed, stained and the positions of the nucleus and MTOC were determined. MTOC reorientation is indicated as YES (>60%); NO (<40%). B. Starved wound edge NIH-3T3 cells were injected with DNA encoding myc-hPAK1 (hPAK1(83-149)), HA-MRCK-TM or Flag-MRCK-CPC. After expression (2 hr) cells were treated with 2 μM LPA for 2 hr, fixed, stained and the extent of MTOC reorientation determined. C. Serum starved wound edge NIH-3T3 cells were injected with DNA encoding […] HA-L61Cdc42, HA-L61Cdc42 plus flag-MRCK-CPC or flag-MRCK-WT (MRCK-WT). After expression (3 hr), cells were fixed, stained and the extent of MTOC reorientation was determined. D, E. Average nucleus and MTOC positions of cells from B and C were determined and plotted. F. Representative images of cells microinjected with the indicated constructs and treated with LPA as indicated before fixing and staining. Arrows indicate cells with expressed protein (green), pericentrin and β-catenin (red) and DNA (blue). G. Actin (phalloidin staining) in a cell injected with MRCK-TM (arrow) and treated with LPA. […] Cells were fixed and stained and the percentage of expressing cells remaining at the wound edge determined. […]

[5] = test system: pSer19 MLC; assay: Phospho-Ser19 MLC quantification; conditions: starved wound edge cells, injected, fixed 2.5 hr later
Procedure: Total cell extracts prepared in SDS sample buffer were analyzed by western blotting as described (38). For quantification of pSer19-MLC immunofluorescence, average cellular fluorescence intensity was determined with Metamorph software after subtracting background fluorescence (determined for an adjacent cell-free area). Data is from at least two independent experiments and error bars in plots are SEM.

[6] = microinjected protein, antibody or expressed DNA construct, 2 μM LPA, 2 hr
[7] = microinjected protein, antibody or expressed DNA construct
[8] = 100 nM nocodazole with LPA for 2h
[9] = co-expression with HA-L61Cdc42, 3 hr

## C=C1[C@@H](C)[C@H]2[C@H](Cc3ccccc3)NC(=O)[C@]23[C@H](OC(C)=O)/C=C/[C@@](C)(O)C(=O)[C@@H](C)C/C=C/[C@H]3[C@@H]1O [CD, cytochalasin D, reference compound]
[1]; lower concentrations of CD (below 0.5 μM)
  effect on MTOC reorientation: had no effect
[1]; 2 μM LPA, 2 hr
  effect on MTOC reorientation induced by LPA: blocked
[2]
  effect on rearward nuclear movement induced by LPA: blocked
  effect on the position of the MTOC: without affecting
[3]; CD or BB with 2 μM LPA
  effect on LPA-induced changes in the actin cytoskeleton: blocked

## Cc1ccc2c(c1)C(=O)C1(O)CCN(c3ccccc3)C1=N2 (stereo not drawn) [BB, blebbistatin, reference compound]
[1]; 2 μM LPA, 2 hr
  effect on MTOC reorientation induced by LPA: blocked
[2]
  effect on rearward nuclear movement induced by LPA: blocked
  effect on the position of the MTOC: without affecting
[3]; CD or BB with 2 μM LPA
  effect on LPA-induced changes in the actin cytoskeleton: blocked

## MRCK-TM: dominant negative full length MRCKa with K106A, H1579A and H1582A mutations
[1]; [6]
  effect on LPA-induced MTOC reorientation: blocked MTOC reorientation
[2]; [7]
  effect on LPA-induced rearward nuclear movement: blocking the rearward movement of the nucleus
[4]
  effect on cell migration (expressing cells remaining at the wound edge): migration was inhibited
[3]; cell injected with DNA construct, treated with LPA
  effect on LPA-induced changes in the actin cytoskeleton: did not have a major effect

## L61Cdc42: constitutively active L61Cdc42 protein (microinjected) or HA-L61Cdc42 DNA
[1]
  MTOC reorientation in starved cells without LPA: resulted in MTOC reorientation
[2]; no other treatment
  rearward nuclear movement in starved cells without LPA: induced rearward nuclear movement
[5]
  pSer19 MLC immunofluorescence compared to noninjected cells: substantially increased

## wild type MRCK: wild type full length Rat MRCKa
[1]
  MTOC reorientation in starved cells without LPA: induced
[2]; expressed DNA, no other treatment
  position of the MTOC in starved cells without LPA: maintaining the MTOC at the cell centroid
[2]; no other treatment
  rearward nuclear movement in starved cells without LPA: induced
[5]
  pSer19 MLC immunofluorescence compared to noninjected cells: increased
[4]
  effect on cell migration (expressing cells remaining at the wound edge): no effect on cell migration

## COC(=O)Nc1nc2ccc(C(=O)c3cccs3)cc2[nH]1 [nocodazole, reference compound]
[1]; [8]
  effect on LPA-induced MTOC reorientation: blocked MTOC reorientation
[2]; 100 nM nocodazole washed out, medium with LPA for another 2h
  MTOC position upon nocodazole wash out: the MTOC returned to the cell center
[2]; [8]
  effect on MTOC centration: interfering with MTOC centration
  effect on nuclear movement: not with nuclear movement

## N17Cdc42: dominant-negative N17Cdc42 protein
[2]; [7]
  effect on LPA-induced rearward nuclear movement: blocked

B1: Par6: full length mouse Par-6 in pFLAG CMV2 (protein, UniProt Q9Z101 1-346, looked up)
chain: MARPQRTPARSPDSIVEVKSKFDAEFRRFALPRTSVRGFQEFSRLLCVVHQIPGLDVLLGYTDAHGDLLPLTNDDSLHRALASGPPPLRLLVQKRAEGDSSGLAFASNSLQRRKKGLLLRPVAPLRTRPPLLISLPQDFRQVSSVIDVDLLPETHRRVRLHKHGSDRPLGFYIRDGMSVRVAPQGLERVPGIFISRLVRGGLAESTGLLAVSDEILEVNGIEVAGKTLDQVTDMMVANSHNLIVTVKPANQRNNVVRGASGRLTGPSSVGPGPTDPDSDDDSSDLVIENRHPPCSNGLSQGPLCWDLQPGCLLPGAGSSLPSLDSREQANSGWGNGMRGDVSGFSL
modifications: full-length Flag tag
notes: full length mouse Par-6 in pFLAG CMV2
[1]; [6]
  effect on LPA-induced MTOC reorientation: blocked
[2]; [7]
  effect on LPA-induced rearward nuclear movement: unaffected
[2]; microinjected protein, antibody or expressed DNA construct, LPA-treated (L61Cdc42 without LPA)
  position of the MTOC relative to the cell centroid: displacement of the MTOC from its position at the centroid

B2: hpak1(83-149): N-terminal autoregulatory domain of Pak1, which inhibits Pak1 activity (protein, UniProt Q13153 83-149, looked up, fragment)
chain: HTIHVGFDAVTGEFTGMPEQWARLLQTSNITKSEQKKNPQAVLDVLEFYNSKKTSNSQKYMSFTDKS
modifications: myc tag
[1]; [6]
  effect on LPA-induced MTOC reorientation: still reoriented their MTOC
[2]; [7]
  effect on LPA-induced rearward nuclear movement: moved their nuclei rearward

B3: MRCK-CPC: dominant negative truncated MRCKa, aa930-1492, lacks kinase domain and GTPase binding domain (protein, UniProt O54874 930-1492, looked up, fragment)
chain: QLIKDTEELRSEKGVEHRDSQHSFLAFLNTPTDALDQFERSPSCTPAGKGRRIADSAPLPVHTPTLRKKGCPASAGFPPKRKTHQFFVKSFTAPTKCHQCTSLMVGLIRQGCSCEVCGFSCHITCVNKAPTTCPVPPEQTKGPLGIDPQKGVGTAYEGHVRIPKPAGVKKGWQRALAVVCDFKLFLYDIAEGKASQPSSVISQVIDMRDEEFSVSSVLASDVIHASRKDIPCIFRVTASQLSAPSDKCSILMLADSETERSKWVGVLSELHKVLKKNKFRDRSVYVPKEAYDSTLPLIKTTQAAAIIDHERVALGNEEGLFVVHVTKDEIIRVGDNKKIHQIELIPSDQLVAVISGRNRHVRLFPMSALDGRETDFYKLAETKGCQTIAAGKVRHGALSCLCVAMKRQVLCYELFQSKTRHRKFKEIQVPCNVQWMAIFSEHLCVGFQSGFLRYPLNGEGSPCNMLHSNDHTLAFITHQPMDAICAVEISNKEYLLCFSSIGIYTDCQGRRSRQQELMWPANPSSCCYNAPYLSIYSENAVDIFDVNSMEWIQTLPLKKVRPL
modifications: Flag tag
[1]; [9]
  effect on MTOC reorientation induced by L61Cdc42: inhibited
[1]; [6]
  effect on LPA-induced MTOC reorientation: blocked MTOC reorientation
[2]; [9]
  effect on nuclear movement induced by L61Cdc42: inhibited
[2]; [7]
  effect on LPA-induced rearward nuclear movement: blocking the rearward movement of the nucleus
[5]
  pSer19 MLC immunofluorescence compared to noninjected cells: no effect
